The text below walks through data of publication PMC4702177, “Discovering new mTOR inhibitors for cancer treatment through virtual screening methods and in vitro assays” (Scientific Reports, 2016).

Entries after “also recorded” stand apart in the source; their conditions may differ.

One test concerns the target MARK1 (MARK) (Homo sapiens, UniProt Q9P0L2). The test is described as follows: SelectScreen kinase profiling. The test is classed as biochemical. The following applies: mean ± SD of triplicate. An excerpt:
(§1) To characterize the kinase selectivity of compound 17, we profiled its ability to bind to a panel of 24 structurally related kinases using the SelectScreen Kinase Profiling Service (Life Technologies Corporation, Madison, WI).

The target in a further test is CDK1/cyclin B (Homo sapiens, UniProt P06493). The test is described as follows: SelectScreen kinase profiling. Type of test: biochemical. Conditions: mean ± SD of triplicate.
CDK1/cyclin B, sequence (P06493 whole entry): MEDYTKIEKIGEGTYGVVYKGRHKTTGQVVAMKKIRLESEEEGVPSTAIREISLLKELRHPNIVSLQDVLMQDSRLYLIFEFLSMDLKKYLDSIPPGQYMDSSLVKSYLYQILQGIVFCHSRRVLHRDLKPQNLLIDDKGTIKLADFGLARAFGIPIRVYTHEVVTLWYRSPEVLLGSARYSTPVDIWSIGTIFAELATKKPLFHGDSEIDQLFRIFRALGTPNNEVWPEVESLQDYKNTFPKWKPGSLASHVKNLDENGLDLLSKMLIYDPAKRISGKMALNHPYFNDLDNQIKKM
CDK1/cyclin B, sequence (P14635 whole entry partner): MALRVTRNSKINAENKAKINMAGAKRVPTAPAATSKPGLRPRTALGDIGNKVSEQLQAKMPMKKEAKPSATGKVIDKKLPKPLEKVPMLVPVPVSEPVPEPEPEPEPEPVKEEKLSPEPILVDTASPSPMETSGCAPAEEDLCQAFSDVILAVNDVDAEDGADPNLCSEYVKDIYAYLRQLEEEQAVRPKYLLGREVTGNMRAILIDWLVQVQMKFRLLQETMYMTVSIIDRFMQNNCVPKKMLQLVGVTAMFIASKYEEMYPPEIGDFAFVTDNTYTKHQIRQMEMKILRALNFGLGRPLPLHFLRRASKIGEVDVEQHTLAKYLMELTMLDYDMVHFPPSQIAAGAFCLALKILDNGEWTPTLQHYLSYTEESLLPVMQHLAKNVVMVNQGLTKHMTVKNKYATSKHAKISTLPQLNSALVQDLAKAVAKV
Description: as §1

Another test has as its target PRKCA (PKC alpha) (Homo sapiens, UniProt P17252). The test is described as follows: SelectScreen kinase profiling. Type of test: biochemical. Conditions: mean ± SD of triplicate.
Description: as §1

A further test deals with PDK1 (Homo sapiens, UniProt O15530). In words: SelectScreen kinase profiling. Type of test: biochemical. The following applies: mean ± SD of triplicate.
Description: as §1

A further test addresses PIK3CG (p110 gamma) (Homo sapiens, UniProt P48736). The test is described as follows: SelectScreen kinase profiling. The following applies: mean ± SD of triplicate. Type of test: biochemical.
Description: as §1

The next test has as its target PIK3C3 (hVPS34) (Homo sapiens, UniProt Q8NEB9). In words: SelectScreen kinase profiling. The test is classed as biochemical. Conditions: mean ± SD of triplicate.
Description: as §1

The target in the next test is PRKCD (PKC delta) (Homo sapiens, UniProt Q05655). The test is described as follows: SelectScreen kinase profiling. The test is classed as biochemical. Conditions: mean ± SD of triplicate.
PRKCD (PKC delta), sequence (Q05655 whole entry): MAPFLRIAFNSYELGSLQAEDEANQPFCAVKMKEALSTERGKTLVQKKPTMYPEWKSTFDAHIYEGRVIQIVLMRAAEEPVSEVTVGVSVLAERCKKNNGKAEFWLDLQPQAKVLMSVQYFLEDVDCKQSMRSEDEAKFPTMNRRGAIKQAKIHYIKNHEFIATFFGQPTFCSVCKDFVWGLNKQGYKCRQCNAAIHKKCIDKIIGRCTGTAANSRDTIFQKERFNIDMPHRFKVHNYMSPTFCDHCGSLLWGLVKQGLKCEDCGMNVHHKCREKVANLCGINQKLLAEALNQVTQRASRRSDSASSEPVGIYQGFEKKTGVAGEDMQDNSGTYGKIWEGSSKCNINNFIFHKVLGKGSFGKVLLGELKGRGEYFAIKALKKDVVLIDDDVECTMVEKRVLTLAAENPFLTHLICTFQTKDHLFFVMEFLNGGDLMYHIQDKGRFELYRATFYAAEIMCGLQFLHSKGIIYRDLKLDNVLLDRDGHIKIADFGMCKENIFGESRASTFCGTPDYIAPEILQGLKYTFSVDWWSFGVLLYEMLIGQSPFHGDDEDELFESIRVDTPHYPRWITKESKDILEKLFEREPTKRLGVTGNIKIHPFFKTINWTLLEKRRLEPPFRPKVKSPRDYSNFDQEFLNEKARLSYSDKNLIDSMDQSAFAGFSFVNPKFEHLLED
Description: as §1

Test [1] has as its system mTORC2 (Akt phosphorylation on Ser473) in HeLa cells. The test is described as follows: Western blot of mTORC2 activity. Type of test: cell-based, human. The protocol: Accordingly, we checked mTORC2 activity by measuring Akt phosphorylation levels on Ser473 in HeLa cells. […] In other words, the mechanism of HeLa cell death induced by 17 was apoptosis, and induction was achieved by targeting both mTORC1 and mTORC2 simultaneously.
(§2) HeLa cells were cultured in a six-well plate in the presence of compound 17 for 48 h. Samples were prepared by lysing PBS-washed cells with RIPA buffer (Beyotime, Haimen, China) consisting of 1% Nonidet P-40, 0.5% sodium deoxycholate, 0.1% SDS, and 50 mM Tris-HCl, pH 7.4, supplemented with NaF, NaVO4, EDTA and a protease inhibitor cocktail (Roche). Proteins were subjected to SDS-PAGE gel electrophoresis and transferred onto a polyvinylidene difluoride membrane (Hybond-P; GE Healthcare Life Sciences, Piscataway, NJ). Immunoblotting was performed using rabbit monoclonal antibodies (Cell Signaling Technology; Danvers, MA) against p70S6K1 phosphorylated on Thr 389 (#9234) and total p70S6K1 (#2708), 4E-BP1 phosphorylated on Thr 37 (#2855) and total 4E-BP1 (#9452), Akt phosphorylated on Thr 308 (#4056) or Ser 473 (#4060) and total Akt (#4685), cleaved caspase-3 (#9664), PARP (#9532), and β-actin (#3700). […] The densitometry of each band was quantified by FluorChem 8000 (AlphaInnotech, San Leandro, CA).
In general terms: Immunoblotting shows a protein as a band on a membrane.

Test [2] relates to HeLa cells. In words: Quantification of apoptotic cells (Hoechst 33342 staining). The following applies: 24 hours (control 1.9%). The test is classed as cell-based, human. The protocol: To elucidate the mechanisms of cell death induced by 17, we analyzed the effect of 17 on nuclear morphology using Hoechst 33342 staining. […] This observation allowed for clear discrimination of treated cells from untreated non-apoptotic HeLa cells, which have a normal, round, and unpunctuated nucleus. […] The percentage of apoptotic HeLa cells were 6.5% and 7.7% at the concentrations of 2.74 and 5.48 μM, respectively (Fig. 6d). To further confirm the nuclear morphology observation, Western blotting was used to detect caspase-3 activation and PARP cleavage, two biochemical markers of apoptosis. […] The induction of apoptosis is positively correlated with the concentration of compound 17.
[…] Then, the cells were collected, washed with PBS, and fixed in 4% paraformaldehyde for 15 min at room temperature. Finally, the samples were stained with Hoechst33342 (10 μg/mL) for 5 min. Stained nuclei were photographed under a fluorescence microscope with a 20× objective (Nikon).

The test system of test [3] is HeLa cells. The test is described as follows: Cell cycle analysis by flow cytometry. Conditions: 2.74 and 5.48 μM, 24 hours. The test is classed as cell-based, human. The protocol:
To further explore the mechanism of cell growth inhibition by compound 17, we examined the effects of compound 17 on cell cycle distribution in HeLa cells using flow cytometry.
Cells cycle distribution was analyzed as previously described. In brief, HeLa cells (1.5 × 10^4/well) seeded in six-well plates were incubated with compound 17 for 24 h. Then, the cells were collected, washed twice with phosphate-buffered saline (PBS), and fixed in 70% cold ethanol at −20 °C overnight. Finally, the samples were stained with 50 μg/mL propidium iodide and 30 μg/mL of RNase A at 37 °C for 1 h. DNA content data were acquired using CELLQuest software on a flow cytometer (FACSCalibur; Becton Dickinson, Mountain View, CA, USA).
Background: In flow cytometry, cells or beads pass a laser one at a time.

Test [4] concerns PI3K pathway (Akt phosphorylation on Thr308) in HeLa cells. The test is described as follows: Western blot of PI3K pathway. The test is classed as cell-based, human. Conditions: compared with the controls. The protocol:
To evaluate whether compound 17 inhibits the PI3K pathway, the Akt phosphorylation level on Thr308 was determined.
as §2

In test [5] the test system is MGC-803 (human gastric cancer). The test is described as follows: In vitro cell proliferation assay. Conditions: Homo sapiens, MGC-803, 48 h, 48 h, highest concentration 100 μM, read-out: IC50 (anti-proliferative). Type of test: cell-based. The protocol: (§3) Most human breast cancer cells and cervical cancer cells become resistant to current chemotherapeutic drugs due to mutation of apoptotic mechanisms. It has been reported that MCF-7 cells are resistant to most of the drugs approved by the US Food and Drug Administration (FDA), including paclitaxel, doxorubicin, 5-fluorouracil, etoposide, and camptothecin[31][32].
(§4) Cell proliferation was measured with an MTS assay (CellTiter 96 Aqueous ONE Solution kit; Promega, Madison, USA). MCF-7, HeLa, MGC-803, C6 and U87 cells in log-phase were seeded (5 × 10^3 cells/well) in 96-well plates for 24 h, and then the medium were replaced with fresh medium containing different concentrations of compounds. […] After incubation for 48 h, the cells were further incubated with 20 μL of MTS for 1–4 h at 37 °C in a humidified incubator with 5% CO2. The absorbance at 490 nm was measured using a mircoplate reader (Model680, Bio-Rad; Hercules, CA, USA). The inhibition rate (%) was calculated as equation (1): […]
(§5) IC50 values were determined from the results of at least three independent tests and calculated from the inhibition curves.

The test system of test [6] is HeLa (human cervical cancer cell). In words: In vitro cell proliferation assay. Type of test: cell-based. Conditions: Homo sapiens, 48 h, highest concentration 100 μM, read-out: IC50 (anti-proliferative). The protocol: as §3, §4, §5
Test [7] has as its system MCF-7 (human breast cancer cell). In words: In vitro cell proliferation assay. Type of test: cell-based. The following applies: Homo sapiens, MCF7, 48 h, 48 h, highest concentration 100 μM, read-out: IC50 (anti-proliferative). The protocol: as §3, §4, §5
A further test has as its system C6 (Glioma cell). The test is described as follows: In vitro cell proliferation assay. The test is classed as cell-based. Conditions: C6 glioma, 48 h, highest concentration 100 μM, read-out: IC50 (anti-proliferative). The protocol:
as §3, §4, §5

PIK3C3 (hVPS34), sequence (Q8NEB9 whole entry): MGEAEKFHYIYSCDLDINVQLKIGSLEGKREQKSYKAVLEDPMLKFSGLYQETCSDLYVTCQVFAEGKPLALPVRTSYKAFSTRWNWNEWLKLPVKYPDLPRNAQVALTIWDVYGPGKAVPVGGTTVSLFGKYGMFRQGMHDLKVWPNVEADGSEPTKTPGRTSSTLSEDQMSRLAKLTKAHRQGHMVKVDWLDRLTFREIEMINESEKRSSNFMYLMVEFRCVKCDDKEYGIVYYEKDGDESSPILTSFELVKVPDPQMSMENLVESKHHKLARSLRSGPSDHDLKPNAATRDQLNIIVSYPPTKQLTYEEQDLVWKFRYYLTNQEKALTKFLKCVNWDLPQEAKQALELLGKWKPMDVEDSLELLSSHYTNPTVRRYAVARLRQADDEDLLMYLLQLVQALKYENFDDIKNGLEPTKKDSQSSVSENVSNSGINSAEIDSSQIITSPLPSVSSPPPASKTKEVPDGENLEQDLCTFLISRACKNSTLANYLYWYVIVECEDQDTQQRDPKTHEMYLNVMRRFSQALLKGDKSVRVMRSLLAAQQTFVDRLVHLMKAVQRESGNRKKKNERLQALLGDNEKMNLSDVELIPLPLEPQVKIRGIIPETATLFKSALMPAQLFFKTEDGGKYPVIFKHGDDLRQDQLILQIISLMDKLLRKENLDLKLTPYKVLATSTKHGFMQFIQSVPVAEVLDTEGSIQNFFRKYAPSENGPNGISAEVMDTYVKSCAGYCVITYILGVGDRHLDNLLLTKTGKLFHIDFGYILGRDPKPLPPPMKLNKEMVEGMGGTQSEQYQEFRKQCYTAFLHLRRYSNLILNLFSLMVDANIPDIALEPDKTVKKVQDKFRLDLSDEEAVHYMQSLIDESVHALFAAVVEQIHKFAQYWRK
MARK1 (MARK), sequence (Q9P0L2 whole entry): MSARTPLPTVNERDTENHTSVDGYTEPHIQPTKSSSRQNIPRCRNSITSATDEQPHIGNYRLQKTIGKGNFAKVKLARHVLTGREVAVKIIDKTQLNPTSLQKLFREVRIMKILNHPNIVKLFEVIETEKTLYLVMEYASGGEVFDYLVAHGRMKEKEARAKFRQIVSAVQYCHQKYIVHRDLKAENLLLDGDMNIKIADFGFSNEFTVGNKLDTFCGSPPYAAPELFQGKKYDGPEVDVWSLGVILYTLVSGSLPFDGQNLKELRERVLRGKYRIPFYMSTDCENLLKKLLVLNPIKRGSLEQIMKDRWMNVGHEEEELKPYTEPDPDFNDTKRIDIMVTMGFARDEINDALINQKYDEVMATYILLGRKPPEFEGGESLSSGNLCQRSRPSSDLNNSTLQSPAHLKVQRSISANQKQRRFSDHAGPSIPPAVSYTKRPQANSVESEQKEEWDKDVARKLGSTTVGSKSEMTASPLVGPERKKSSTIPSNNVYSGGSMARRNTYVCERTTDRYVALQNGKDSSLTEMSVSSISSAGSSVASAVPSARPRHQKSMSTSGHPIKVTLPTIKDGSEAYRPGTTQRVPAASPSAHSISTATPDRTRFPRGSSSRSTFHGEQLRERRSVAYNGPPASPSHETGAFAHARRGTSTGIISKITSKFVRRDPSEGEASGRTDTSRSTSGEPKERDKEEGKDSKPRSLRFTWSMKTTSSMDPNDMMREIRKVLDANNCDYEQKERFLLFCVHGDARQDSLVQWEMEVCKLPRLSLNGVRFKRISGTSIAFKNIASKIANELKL
PIK3CG (p110 gamma), sequence (P48736 whole entry): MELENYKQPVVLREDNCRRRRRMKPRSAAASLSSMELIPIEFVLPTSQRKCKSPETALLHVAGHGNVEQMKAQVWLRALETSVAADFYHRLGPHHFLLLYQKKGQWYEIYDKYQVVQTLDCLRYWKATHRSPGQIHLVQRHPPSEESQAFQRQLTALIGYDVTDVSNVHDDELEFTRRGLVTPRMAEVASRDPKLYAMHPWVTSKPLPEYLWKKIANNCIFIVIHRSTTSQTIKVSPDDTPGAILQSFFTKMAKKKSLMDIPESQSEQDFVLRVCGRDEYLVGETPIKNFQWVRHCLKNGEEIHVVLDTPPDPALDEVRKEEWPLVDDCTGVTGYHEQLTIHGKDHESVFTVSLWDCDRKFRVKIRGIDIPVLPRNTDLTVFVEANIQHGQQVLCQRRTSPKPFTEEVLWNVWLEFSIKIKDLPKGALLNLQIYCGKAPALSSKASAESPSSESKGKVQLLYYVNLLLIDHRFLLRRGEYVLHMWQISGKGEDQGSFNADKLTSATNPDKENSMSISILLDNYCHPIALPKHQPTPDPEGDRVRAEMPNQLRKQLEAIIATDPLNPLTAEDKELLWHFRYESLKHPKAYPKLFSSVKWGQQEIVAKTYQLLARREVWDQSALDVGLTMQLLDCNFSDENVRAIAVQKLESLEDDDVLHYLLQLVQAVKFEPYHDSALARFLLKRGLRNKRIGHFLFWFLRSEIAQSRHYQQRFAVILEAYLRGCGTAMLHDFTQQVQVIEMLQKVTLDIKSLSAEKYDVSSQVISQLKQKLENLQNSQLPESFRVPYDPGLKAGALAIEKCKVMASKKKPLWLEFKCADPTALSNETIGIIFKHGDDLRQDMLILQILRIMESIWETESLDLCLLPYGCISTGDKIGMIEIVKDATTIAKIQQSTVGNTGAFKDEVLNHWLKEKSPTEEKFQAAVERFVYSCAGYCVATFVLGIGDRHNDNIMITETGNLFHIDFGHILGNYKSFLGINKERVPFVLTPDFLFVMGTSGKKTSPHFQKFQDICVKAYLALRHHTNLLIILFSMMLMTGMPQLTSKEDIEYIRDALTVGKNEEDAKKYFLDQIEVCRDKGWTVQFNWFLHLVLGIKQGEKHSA

In the case of `Nc1nn2c(nc(N)c3c(N)n[nH]c32)c1/N=N/c1ccccc1` [Compound 17], the inhibition (usually the drop in the measured response relative to a control, in per cent) at 10 µM was -12.2 ± 4.24% against MARK1 (MARK); 3.09 ± 2.31% against CDK1/cyclin B; 9.84 ± 3.05% against PRKCA (PKC alpha); 3.94 ± 3.24% against PDK1; 40.9 ± 1.19% on PIK3CG (p110 gamma); -6.75 ± 8.78% at PIK3C3 (hVPS34). Besides, the inhibition at 10 µM against PRKCD (PKC delta) is -10.5 ± 9.55%. Also, the “P-Akt Ser473” value in test [1] is “can reduce P-Akt Ser473”. Besides, the “% of apoptotic cells” value in the test with HeLa cells [2] (2.74 μM) was determined as 6.5%; with HeLa cells [2] (5.48 μM), 7.7%. For the same compound, in the test on HeLa cells [3], the cell cycle distribution entry is recorded as “arrests the cell cycle of HeLa at the G1/G0-phase; also recorded: induced an arrest of cell cycle at the G1/G0-phase”. The “P-Akt Thr308” value in [4] is “not affected”. Moreover, the IC50 (as a rule, the point on the concentration scale where inhibition reaches its midpoint) was 3.5 µM in [5], 2.74 µM in test [6], 1.9 µM in test [7] and 11.1 µM with C6 (Glioma cell).
